A short description of this data set: In vitro metabolic stability of hepatocytes. The following applies: Mouse hepatocytes, 0.5 ×10^6 cells/mL.

These results are taken from patent US20260061027A1 (NeuroTher, LLC, priority 2024, published 2026).

Molecules are shown by their SMILES.

For the compound `O=c1ccc2ccc(O)cc2o1` [7-Hydroxycoumarin], the “T1/2” value was found to be 3.0 min.
